The results in this text go back to ChEMBL document CHEMBL1136032, “Remarkable influence of the aromatic substructure in 9-methoxystrobilurin derivatives on their antifungal activity” (Bioorg Med Chem Lett, 2002).

As a reminder, the IC50 is the concentration needed to halve the response being measured. A low value points to inhibition by little substance.

Active and inactive are the calls of the source. The calls are words filed in the database; no cut-off is given here.

The test system of experiment [1] is Penicillium citrinum. The experiment in a line: Compound was tested for the antifungal activity against Penicillium citrinum (R-3703) at a concentration of 1 ug/disk; zone of inhibition was measured after 48 hr incubation. It counts as functional.
Experiment [2] relates to Candida albicans. The experiment in a line: Compound was tested for the antifungal activity against Candida albicans (IFO1594) at a concentration of 0.1 ug/disk; zone of inhibition was measured after 48 h incubation; NE denotes not effective. The format is functional, organism-based.
In experiment [3] the test system is Penicillium citrinum. As to the kind of experiment: Compound was tested for the antifungal activity against Penicillium citrinum (R-3703) at a concentration of 0.1 ug/disk; zone of inhibition was measured after 48 hr incubation; +/- denotes slightly effective. It counts as functional, organism-based.
The test system of experiment [4] is Saccharomyces cerevisiae. The experiment in a line: Compound was tested for the antifungal activity against Saccharomyces cerevisiae (IAM4861) at a concentration of 0.1 ug/disk; zone of inhibition was measured after 48 hr incubation. It counts as functional.
For experiment [5], the system named is MRC5. As to the kind of experiment: Cytotoxicity against human diploid embryotic cell line (MRC-5). The format is functional, cell-based. To be noted: Homo sapiens, MRC5.
Experiment [6] relates to Candida albicans. The experiment in a line: Compound was tested for the antifungal activity against Candida albicans (IFO1594) at a concentration of 1 ug/disk; zone of inhibition was measured after 48 hr incubation. The format is functional.
Experiment [7] deals with Candida albicans. As to the kind of experiment: Compound was tested for the antifungal activity against Candida albicans (IFO1594) at a concentration of 10 ug/disk; zone of inhibition was measured after 48 hr incubation. The format is functional.
For experiment [8], the system named is Aspergillus fumigatus. The experiment in a line: Compound was tested for the antifungal activity against Aspergillus fumigatus (R-1301) at a concentration of 0.1 ug/disk; zone of inhibition was measured after 48 hr incubation; NE denotes not effective. The format is functional, organism-based.
Experiment [9] has as its system Fusarium solani. As to the kind of experiment: Compound was tested for the antifungal activity against Fusarium solani (R-2800) at a concentration of 10 ug/disk; zone of inhibition was measured after 48 hr incubation; NE denotes not effective. It counts as functional, organism-based.
Experiment [10] has as its system Penicillium citrinum. The experiment in a line: Compound was tested for the antifungal activity against Penicillium citrinum (R-3703) at a concentration of 10 ug/disk; zone of inhibition was measured after 48 h incubation. The format is functional.
The subject of experiment [11] is Aspergillus fumigatus. The experiment in a line: Compound was tested for the antifungal activity against Aspergillus fumigatus (R-1301) at a concentration of 1 ug/disk; zone of inhibition was measured after 48 hr incubation. It counts as functional.
Experiment [12] has as its system Saccharomyces cerevisiae. As to the kind of experiment: Compound was tested for the antifungal activity against Saccharomyces cerevisiae (IAM4861) at a dose of 1 ug/disk; the diameter of each inhibition zone was measured after 48 hr incubation. It counts as functional.
For experiment [13], the system named is Fusarium solani. As to the kind of experiment: Compound was tested for the antifungal activity against Fusarium solani (R-2800) at a concentration of 1 ug/disk; zone of inhibition was measured after 48 hr incubation; NE denotes not effective. It counts as functional, organism-based.
Experiment [14] deals with Fusarium solani. The experiment in a line: Compound was tested for the antifungal activity against Fusarium solani (R-2800) at a concentration of 0.1 ug/disk; zone of inhibition was measured after 48 hr incubation; NE denotes not effective. It counts as functional, organism-based.
The subject of experiment [15] is Aspergillus fumigatus. The experiment in a line: Compound was tested for the antifungal activity against Aspergillus fumigatus (R-1301) at a concentration of 10 ug/disk; zone of inhibition was measured after 48 hr incubation. It counts as functional.
In experiment [16] the test system is Saccharomyces cerevisiae. The experiment in a line: Compound was tested for the antifungal activity against Saccharomyces cerevisiae (IAM4861) at a concentration of 10 ug/disk; zone of inhibition was measured after 48 hr incubation. The format is functional.

With `CO\C=C(C(=O)OC)/C(C)=C(\C=C\c1cccc2ccccc12)OC`, the Diameter of inhibition zone in experiment [1] is 12 mm; in experiment [3], “Weak activity”; in experiment [4] it was 5 mm; in experiment [6], 5 mm; in [7] it was 15 mm; in experiment [10], 17 mm. For the same molecule, the Diameter of inhibition zone is 10 mm in experiment [11], 18 mm in [12], 14 mm in experiment [15] and 22 mm in experiment [16]. Besides, the “Diameter of inhibition zone” value in experiment [2], in experiment [8], in experiment [9], in experiment [13] and in experiment [14] was “inactive” in each case. Also, the half-maximal inhibitory concentration (IC50) in experiment [5] was above 100 µM.
